Experiments:
[1] = molecular target: Human PPARδ LBD (Homo sapiens (Human), UniProt Q03181); assay: PPAR delta transactivation (PPARδ Activity Screen, GAL4-PPARδ LBD luciferase reporter in CV-1 cells); type: cell-based
Protocol: Cell Culture and Transfection:
CV-1 cells were grown in DMEM+10% charcoal stripped FCS. Cells were seeded into 384-well plates the day before transfection to give a confluency of 50-80% at transfection. A total of […] containing 0.64 micrograms pCMX-PPARDelta LBD, 0.1 micrograms pCMXβGal, 0.08 micrograms pGLMH2004 reporter and 0.02 micrograms pCMX empty vector was transfected per well using FuGene transfection reagent according to the manufacturer's instructions (Roche). Cells were allowed to express protein for 48 h followed by addition of compound.
Human PPARδ was used to PCR amplify the PPARδ LBD. […] Ensuing fusions were verified by sequencing.
Compounds: All compounds were dissolved in DMSO and diluted 1:1000 upon addition to the cells. Compounds were tested in quadruple in concentrations ranging from 0.001 to 100 μM. Cells were treated with compound for 24 h followed by luciferase assay. Each compound was tested in at least two separate experiments.
Statistical Methods: The activity of a compound is calculated as fold induction compared to an untreated sample. For each compound the efficacy (maximal activity) is given as a relative activity compared to GW501516, a PPARδ agonist. […] EC50 values were calculated via non-linear regression using GraphPad PRISM (GraphPad Software, San Diego, Calif.).

[2] = Pharmacokinetic screening, iv; type: in vivo; settings: CD-1 mice, 3 mg/kg iv
[3] = tested on: C57BL6J mice, thermal injury to the TA; assay: Muscle regeneration after freeze burn (thermal) injury to the TA, oral GW501516; type: in vivo
[4] = tested on: FGF1a promoter; assay: Luciferase reporter assay of FGF1a promoter co-transfected with PPARδ; type: cell-based; settings: PPARδ with or without ligand

Human PPARδ LBD, sequence (Q03181 128-441 limits assumed): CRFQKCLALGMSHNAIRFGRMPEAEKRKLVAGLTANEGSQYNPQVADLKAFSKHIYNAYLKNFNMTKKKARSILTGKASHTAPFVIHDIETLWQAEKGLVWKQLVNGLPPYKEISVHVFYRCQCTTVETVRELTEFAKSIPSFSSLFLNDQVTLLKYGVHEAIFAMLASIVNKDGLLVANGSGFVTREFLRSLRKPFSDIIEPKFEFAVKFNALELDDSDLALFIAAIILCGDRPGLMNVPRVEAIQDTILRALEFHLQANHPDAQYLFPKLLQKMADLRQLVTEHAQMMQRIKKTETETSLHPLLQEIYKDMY

| Structure (SMILES) | Mice_PK_IV_Cl [2] | Mice_PK_IV_AUC (0-inf) [2] | other results |
| --- | --- | --- | --- |
| C/C(=C\COc1ccc(C(F)(F)F)cc1CN(C)C(=O)c1ccc(-c2ccco2)cc1)CCC(=O)O [Compound 8aa, (E)-6-(2-((4-(furan-2-yl)-N-methylbenzamido)methyl)-4-(trifluoromethyl)phenoxy)-4-methylhex-4-enoic acid] |  |  | EC50 ([1]; CV-1 cells, 24 h): 683 nM |
| CN(Cc1ccccc1OCCCC1CC1C(=O)O)C(=O)c1ccc(-c2ccco2)cc1 (centres unmarked) [Compound 8t, 2-(3-(2-((4-(furan-2-yl)-N-methylbenzamido)methyl)phenoxy)propyl) cyclopropane-1-carboxylic acid] | 3.08 mL/min/kg |  |  |
| CN(Cc1ccccc1OCCC[C@H]1CC1C(=O)O)C(=O)c1ccc(-c2ccco2)cc1 (single isomer, unassigned) [Compound 8u, (1R*,2S*)-2-(3-(2-((4-(furan-2-yl)-N-methylbenzamido)methyl)phenoxy)propyl) cyclopropane-1-carboxylic acid] | 1.70 mL/min/kg | 30142.00 ng·h/mL |  |
| CN(Cc1ccccc1/C=C/CCCCC(=O)O)C(=O)c1ccc(-c2ccco2)cc1 [Compound 8l, (E)-7-(2-((4-(furan-2-yl)-N-methylbenzamido)methyl)phenyl)hept-6-enoic acid] | 9.68 mL/min/kg | 5161.00 ng·h/mL |  |
| Cc1cc(SCc2sc(-c3ccc(C(F)(F)F)cc3)nc2C)ccc1OCC(=O)O [GW501516] |  |  | Evans Blue dye uptake, proportion of muscle CSA stained ([3]; 5 mg/kg orally, 4 days prior to and 5 days after injury, 5 days after the injury): 4.9%; expression of inflammatory marker genes by QPCR ([3]; 3 days after the injury): significantly reduced; reduction in the proportion of stained area ([3]; 5 days after the injury, versus vehicle): 34.7%; PPARδ target genes (PDK4, CPT1b, and catalase) in TA by QPCR ([3]; 9 day treatment): Up-regulation; myoblast proliferation (BrdU positive nuclei) ([3]; BrdU injection at 48 hours after the injury): promoted myoblast proliferation; number of quiescent satellite cells ([3]; after 9 days or 4 weeks of ligand treatment): an increase in the number of quiescent satellite cells was not observed; induction of FGF1a (luciferase reporter) [4]: induction of FGF1a |
| CN(Cc1ccccc1OCc1cccc(CCC(=O)O)c1)C(=O)c1ccc(-c2ccco2)cc1 [Compound 8p, 3-(3-((2-((4-(furan-2-yl)-N-methylbenzamido)methyl)phenoxy)methyl)phenyl)propanoic acid] | 173.05 mL/min/kg | 288.90 ng·h/mL |  |
| CN(Cc1ccccc1OCCC/C=C/C(=O)O)C(=O)c1ccc(-c2ccco2)cc1 [Compound 8cc, (E)-6-(2-((4-(furan-2-yl)-N-methylbenzamido)methyl)phenoxy)hex-2-enoic acid] | 66.87 mL/min/kg | 748.00 ng·h/mL |  |
| CC(CCOc1ccccc1CN(C)C(=O)c1ccc(-c2ccco2)cc1)CCC(=O)O (centres unmarked) [Compound 8h, 6-(2-((4-(furan-2-yl)-N-methylbenzamido)methyl)phenoxy)-4-methylhexanoic acid] | 4.20 mL/min/kg | 11843.00 ng·h/mL |  |
| Cc1cc2cc(C(=O)N(C)Cc3ccccc3OCCCCCC(=O)O)ccc2o1 [Comparator Cmpd. 3, reference compound] | Mice_PK_IV_Cl = 27.95 ml/min/kg | [AUC (0-inf) = 1788.0 ng * hr/ml] |  |
| CC(CCCCOc1ccccc1CN(C)C(=O)c1ccc(-c2ccco2)cc1)C(=O)O (centres unmarked) [Compound 8o, 6-(2-((4-(furan-2-yl)-N-methylbenzamido)methyl)phenoxy)-2-methylhexanoic acid] | 2.78 mL/min/kg | 11397.00 ng·h/mL |  |
| C/C(=C\COc1ccccc1CN(C)C(=O)c1ccc2oc(C)cc2c1)CCC(=O)O [Compound 8f, (E)-6-(2-((N,2-dimethylbenzofuran-5-carboxamido)methyl)phenoxy)-4-methylhex-4-enoic acid] | 40.02 mL/min/kg |  |  |
| C/C(=C\COc1ccc(F)cc1CN(C)C(=O)c1ccc(-c2ccco2)cc1)CCC(=O)O [Compound 8g, (E)-6-(4-fluoro-2-((4-(furan-2-yl)-N-methylbenzamido)methyl)phenoxy)-4-methylhex-4-enoic acid] | 23.00 mL/min/kg | 2195.00 ng·h/mL |  |
| C/C(=C\C(=O)O)CCCOc1ccccc1CN(C)C(=O)c1ccc(-c2ccco2)cc1 [Compound 8i, (E)-6-(2-((4-(furan-2-yl)-N-methylbenzamido)methyl)phenoxy)-3-methylhex-2-enoic acid] | 10.65 mL/min/kg | 4691.00 ng·h/mL |  |
| CN(Cc1ccccc1OCCC[C@@H]1C[C@@H]1C(=O)O)C(=O)c1ccc(-c2ccco2)cc1 (single isomer, unassigned) [Compound 8x] | 1.90 mL/min/kg |  |  |
| CN(Cc1ccccc1OCCCCC(C)(C)C(=O)O)C(=O)c1ccc(-c2ccco2)cc1 [Compound 8s, 6-(2-((4-(furan-2-yl)-N-methylbenzamido)methyl)phenoxy)-2,2-dimethylhexanoic acid] | 1.03 mL/min/kg | 48454.90 ng·h/mL |  |
| C/C(=C\CCCOc1ccccc1CN(C)C(=O)c1ccc(-c2ccco2)cc1)C(=O)O [Compound 8k, (E)-6-(2-((4-(furan-2-yl)-N-methylbenzamido)methyl)phenoxy)-2-methylhex-2-enoic acid] | 3.92 mL/min/kg | 12804.00 ng·h/mL |  |
| C/C(=C\COc1ccccc1CN(C)C(=O)c1ccc(-c2ccco2)c(F)c1)CCC(=O)O [Compound 8c, (E)-6-(2-((3-fluoro-4-(furan-2-yl)-N-methylbenzamido)methyl)phenoxy)-4-methylhex-4-enoic acid] | 34.30 mL/min/kg | 1459.00 ng·h/mL |  |
| C/C(=C\COc1ccc(C)cc1CN(C)C(=O)c1ccc(-c2ccco2)cc1)CCC(=O)O [Compound 8n, (E)-6-(2-((4-(furan-2-yl)-N-methylbenzamido)methyl)-4-methylphenoxy)-4-methylhex-4-enoic acid] | 5.10 mL/min/kg |  |  |
| CN(Cc1ccccc1OCCC[C@H]1C[C@H]1C(=O)O)C(=O)c1ccc(-c2ccco2)cc1 (single isomer, unassigned) [Compound 8w] | 1.70 mL/min/kg |  |  |
| C/C(=C\COc1ccccc1CN(C)C(=O)c1ccc(-c2ccco2)c(Cl)c1)CCC(=O)O [Compound 8d, (E)-6-(2-((3-chloro-4-(furan-2-yl)-N-methylbenzamido)methyl)phenoxy)-4-methylhex-4-enoic acid] | 34.65 mL/min/kg | 1443.00 ng·h/mL |  |
| C/C(=C\COc1ccccc1CN(C)C(=O)c1ccc(-c2ccc(C)o2)cc1)CCC(=O)O [Compound 8e, (E)-4-methyl-6-(2-((N-methyl-4-(5-methylfuran-2-yl)benzamido)methyl)phenoxy)hex-4-enoic acid] | 23.10 mL/min/kg | 2166.00 ng·h/mL |  |
| C/C(=C\COc1ccc(C2CC2)cc1CN(C)C(=O)c1ccc(-c2ccco2)cc1)CCC(=O)O [Compound 8bb, (E)-6-(4-cyclopropyl-2-((4-(furan-2-yl)-N-methylbenzamido)methyl)phenoxy)-4-methylhex-4-enoic acid] |  |  | inhibition at 10 µM ([1]; CV-1, @ 10 uM): 58% |
| CN(Cc1ccccc1OCc1cccc(CC(=O)O)c1)C(=O)c1ccc(-c2ccco2)cc1 [Compound 8q, 2-(3-((2-((4-(furan-2-yl)-N-methylbenzamido)methyl)phenoxy)methyl)phenyl)acetic acid] | 80.32 mL/min/kg | 622.50 ng·h/mL |  |

— patent US10188627B2, “PPAR agonists, compounds, pharmaceutical compositions, and methods of use thereof” (Mitobridge, Inc., priority 2014, dated 2019)
